Measurements: ChEMBL document CHEMBL1201862, “PubChem BioAssay data set” (2004)
Where “and” joins values, the source holds several entries; their conditions need not be identical. Equal values may be shown once. Calls of active or inactive are those of the source.

How the values were obtained:
[1] = molecular target: Cytochrome P450 3A4 (Homo sapiens, UniProt P08684); details: Potency;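 also: confirmatory qHTS run detecting inhibitors and substrates of CYP3A4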
[2] = molecular target: T1, Coagulation factor XII (Homo sapiens, UniProt P00748); type: functional;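 also: activated factor XIIa alpha cleaving a fluorogenic AMC peptide substrate; inhibitor potency from loss of enzyme activity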
T1 sequence (P00748 whole entry): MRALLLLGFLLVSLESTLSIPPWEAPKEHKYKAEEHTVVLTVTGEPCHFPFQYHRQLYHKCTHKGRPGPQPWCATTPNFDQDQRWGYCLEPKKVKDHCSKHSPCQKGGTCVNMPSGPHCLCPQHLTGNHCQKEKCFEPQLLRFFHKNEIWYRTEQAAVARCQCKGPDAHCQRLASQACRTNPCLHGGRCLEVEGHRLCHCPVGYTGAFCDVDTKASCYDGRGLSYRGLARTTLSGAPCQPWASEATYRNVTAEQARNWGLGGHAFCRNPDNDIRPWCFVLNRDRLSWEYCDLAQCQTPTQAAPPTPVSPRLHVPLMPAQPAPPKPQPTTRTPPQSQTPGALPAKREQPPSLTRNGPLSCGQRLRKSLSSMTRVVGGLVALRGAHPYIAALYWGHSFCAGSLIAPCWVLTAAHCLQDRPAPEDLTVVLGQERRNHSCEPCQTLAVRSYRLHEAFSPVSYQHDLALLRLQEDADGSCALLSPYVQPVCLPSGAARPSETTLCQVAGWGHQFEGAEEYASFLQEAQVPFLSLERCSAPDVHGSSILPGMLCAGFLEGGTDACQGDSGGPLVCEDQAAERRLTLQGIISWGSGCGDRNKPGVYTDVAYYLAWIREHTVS

[3] = molecular target: T2, Alkaline phosphatase, tissue-nonspecific isozyme (Homo sapiens, UniProt P05186); assay: potency against alkaline phosphatase TNAP – biochemical, luminescent, dose response, SAR follow-up (AID 1056)
T2 sequence (P05186 whole entry): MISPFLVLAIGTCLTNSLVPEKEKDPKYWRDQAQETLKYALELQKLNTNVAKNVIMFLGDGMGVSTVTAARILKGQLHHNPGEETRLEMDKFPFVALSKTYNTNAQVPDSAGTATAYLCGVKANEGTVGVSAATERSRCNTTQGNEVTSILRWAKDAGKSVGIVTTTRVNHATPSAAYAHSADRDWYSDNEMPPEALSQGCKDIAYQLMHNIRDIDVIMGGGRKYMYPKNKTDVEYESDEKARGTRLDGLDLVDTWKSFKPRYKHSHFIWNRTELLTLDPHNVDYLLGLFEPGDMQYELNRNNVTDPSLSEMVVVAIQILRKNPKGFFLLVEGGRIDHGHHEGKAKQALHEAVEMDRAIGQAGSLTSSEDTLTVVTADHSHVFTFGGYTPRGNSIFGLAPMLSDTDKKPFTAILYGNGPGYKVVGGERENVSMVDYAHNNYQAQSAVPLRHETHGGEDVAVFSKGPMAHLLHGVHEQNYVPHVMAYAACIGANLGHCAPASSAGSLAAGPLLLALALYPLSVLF

[4] = molecular target: Glyceraldehyde-3-phosphate dehydrogenase (Homo sapiens, UniProt P04406)
Sequence of Glyceraldehyde-3-phosphate dehydrogenase (P04406 whole entry): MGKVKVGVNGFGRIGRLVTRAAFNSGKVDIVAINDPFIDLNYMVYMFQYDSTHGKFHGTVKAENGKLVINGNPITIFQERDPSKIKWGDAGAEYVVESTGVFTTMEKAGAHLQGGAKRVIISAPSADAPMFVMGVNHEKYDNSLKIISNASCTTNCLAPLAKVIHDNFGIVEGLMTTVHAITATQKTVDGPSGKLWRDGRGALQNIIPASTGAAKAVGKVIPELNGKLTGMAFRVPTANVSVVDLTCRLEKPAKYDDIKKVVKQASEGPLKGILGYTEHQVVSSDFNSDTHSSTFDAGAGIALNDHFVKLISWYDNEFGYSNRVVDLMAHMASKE

[5] = molecular target: G-protein coupled receptor 55 (Homo sapiens, UniProt Q9Y2T6); assay: inhibition of LPI-stimulated GPR55 beta-arrestin translocation – imaging, U2OS, beta-arrestin-GFP, LPI agonist, primary screen (AID 2013); type: functional;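 also: antagonist potency measured as reduced agonist-driven arrestin aggregation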
Sequence of G-protein coupled receptor 55 (Q9Y2T6 whole entry): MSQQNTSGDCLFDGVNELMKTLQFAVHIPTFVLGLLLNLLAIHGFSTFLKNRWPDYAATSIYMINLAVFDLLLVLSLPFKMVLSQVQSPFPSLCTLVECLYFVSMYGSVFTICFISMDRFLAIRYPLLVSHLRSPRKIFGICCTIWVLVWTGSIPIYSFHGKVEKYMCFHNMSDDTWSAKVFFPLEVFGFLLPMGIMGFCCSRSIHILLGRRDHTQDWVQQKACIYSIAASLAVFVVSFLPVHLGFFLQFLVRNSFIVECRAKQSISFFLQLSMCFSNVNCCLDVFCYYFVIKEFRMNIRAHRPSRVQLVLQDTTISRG

[6] = molecular target: T3, Heat shock factor protein 1 (Mus musculus, UniProt P38532); assay: decrease of HSF1-responsive luciferase luminescence – cell-based, NIH3T3, dose retest, confirmation (AID 2382); type: functional;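 also: NIH3T3 fibroblasts with HSF1-driven luciferase reporter stressed by proteasome inhibitor MG132; luminescence from HSF1-driven luciferase expression after 8 hours of MG132 stress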
T3 sequence (P38532 whole entry): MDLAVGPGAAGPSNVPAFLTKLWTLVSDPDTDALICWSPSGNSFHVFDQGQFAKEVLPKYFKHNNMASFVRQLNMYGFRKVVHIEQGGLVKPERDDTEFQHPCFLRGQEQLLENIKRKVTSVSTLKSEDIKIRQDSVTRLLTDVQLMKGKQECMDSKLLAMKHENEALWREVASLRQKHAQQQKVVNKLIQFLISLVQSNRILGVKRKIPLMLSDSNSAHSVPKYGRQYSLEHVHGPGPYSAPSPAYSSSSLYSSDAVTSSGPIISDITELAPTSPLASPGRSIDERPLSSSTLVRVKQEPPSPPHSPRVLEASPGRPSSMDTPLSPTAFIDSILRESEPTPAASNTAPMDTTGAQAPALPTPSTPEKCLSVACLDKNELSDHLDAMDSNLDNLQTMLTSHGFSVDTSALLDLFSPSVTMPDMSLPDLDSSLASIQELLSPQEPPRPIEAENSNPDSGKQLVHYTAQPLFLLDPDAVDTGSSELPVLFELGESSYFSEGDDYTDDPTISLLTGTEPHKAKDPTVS

[7] = Luminescent dose response cell-based high throughput screening assay for inhibitors of the Janus kinase 2 mutant JAK2V617F. [Related pubchem assays: 1446 (Primary screen.), 1521 (Confirmation assay.), 1486 (Counter screen.)]; type: functional
[8] = molecular target: T4, Protein RecA (Mycobacterium tuberculosis, UniProt P9WHJ3); assay: Fluorescence Cell-Free Homogeneous Dose Retest to Identify Inhibitors of RecA-Intein Splicing Activity. [Related pubchem assays (depositor defined):AID2097, AID2223, AID489010, AID492950]; type: functional
T4 sequence (P9WHJ3 whole entry): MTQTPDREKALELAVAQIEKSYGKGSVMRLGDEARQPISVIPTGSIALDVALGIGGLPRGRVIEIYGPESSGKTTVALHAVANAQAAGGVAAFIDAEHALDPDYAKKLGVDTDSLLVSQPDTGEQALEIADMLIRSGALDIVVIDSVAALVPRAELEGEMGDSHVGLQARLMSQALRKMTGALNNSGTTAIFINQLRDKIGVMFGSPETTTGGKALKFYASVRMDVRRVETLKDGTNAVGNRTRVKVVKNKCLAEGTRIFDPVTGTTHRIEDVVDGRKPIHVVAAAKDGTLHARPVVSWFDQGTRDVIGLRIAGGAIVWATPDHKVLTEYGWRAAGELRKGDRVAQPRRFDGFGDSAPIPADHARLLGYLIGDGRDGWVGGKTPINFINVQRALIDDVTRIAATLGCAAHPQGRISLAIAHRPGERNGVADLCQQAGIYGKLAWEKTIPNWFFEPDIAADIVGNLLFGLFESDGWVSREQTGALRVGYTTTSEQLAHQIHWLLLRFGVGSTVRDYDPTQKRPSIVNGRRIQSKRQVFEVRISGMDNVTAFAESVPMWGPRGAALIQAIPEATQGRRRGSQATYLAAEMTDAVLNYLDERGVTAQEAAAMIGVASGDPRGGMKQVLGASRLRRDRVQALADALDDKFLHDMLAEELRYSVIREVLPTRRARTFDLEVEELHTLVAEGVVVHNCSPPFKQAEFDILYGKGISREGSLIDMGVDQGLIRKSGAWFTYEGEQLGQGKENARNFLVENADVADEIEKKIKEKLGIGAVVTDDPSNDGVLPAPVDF

[9] = Luminescence Cell-Based Dose Response HTS to Identify Activators of Luciferase Translation or Activity in H4 […] Cells. [Related pubchem assays: 1829 (Project Summary), 1814 (Primary HTS)]; type: functional
[10] = Luminescence Cell-Based Dose Confirmation HTS to Identify Activators of 5'UTR Stem-Loop Driven Alpha-Synuclein mRNA Translation in H4 Neuroglioblastoma Cells. [Related pubchem assays: 1829 (Project Summary), 1814 (Primary HTS)]; type: functional
[11] = test system: H4; assay: Luminescence Cell-Based Dose Response HTS to Identify Activators of 5'UTR Stem-Loop Driven Prion Protein mRNA Translation in H4 Neuroglioblastoma Cells. [Related pubchem assays: 1829 (Project Summary), 1814 (Primary HTS)]; type: functional; details: Homo sapiens
[12] = molecular target: T5, Aminopeptidase N (Plasmodium falciparum FcB1/Columbia, UniProt O96935); assay: malaria alanyl aminopeptidase activity blockers – biochemical, fluorogenic H-Leu-NHMec substrate, 1536-well (AID 1445); parameters: species or system Plasmodium falciparum 3D7, 3D7
T5 sequence (O96935 whole entry): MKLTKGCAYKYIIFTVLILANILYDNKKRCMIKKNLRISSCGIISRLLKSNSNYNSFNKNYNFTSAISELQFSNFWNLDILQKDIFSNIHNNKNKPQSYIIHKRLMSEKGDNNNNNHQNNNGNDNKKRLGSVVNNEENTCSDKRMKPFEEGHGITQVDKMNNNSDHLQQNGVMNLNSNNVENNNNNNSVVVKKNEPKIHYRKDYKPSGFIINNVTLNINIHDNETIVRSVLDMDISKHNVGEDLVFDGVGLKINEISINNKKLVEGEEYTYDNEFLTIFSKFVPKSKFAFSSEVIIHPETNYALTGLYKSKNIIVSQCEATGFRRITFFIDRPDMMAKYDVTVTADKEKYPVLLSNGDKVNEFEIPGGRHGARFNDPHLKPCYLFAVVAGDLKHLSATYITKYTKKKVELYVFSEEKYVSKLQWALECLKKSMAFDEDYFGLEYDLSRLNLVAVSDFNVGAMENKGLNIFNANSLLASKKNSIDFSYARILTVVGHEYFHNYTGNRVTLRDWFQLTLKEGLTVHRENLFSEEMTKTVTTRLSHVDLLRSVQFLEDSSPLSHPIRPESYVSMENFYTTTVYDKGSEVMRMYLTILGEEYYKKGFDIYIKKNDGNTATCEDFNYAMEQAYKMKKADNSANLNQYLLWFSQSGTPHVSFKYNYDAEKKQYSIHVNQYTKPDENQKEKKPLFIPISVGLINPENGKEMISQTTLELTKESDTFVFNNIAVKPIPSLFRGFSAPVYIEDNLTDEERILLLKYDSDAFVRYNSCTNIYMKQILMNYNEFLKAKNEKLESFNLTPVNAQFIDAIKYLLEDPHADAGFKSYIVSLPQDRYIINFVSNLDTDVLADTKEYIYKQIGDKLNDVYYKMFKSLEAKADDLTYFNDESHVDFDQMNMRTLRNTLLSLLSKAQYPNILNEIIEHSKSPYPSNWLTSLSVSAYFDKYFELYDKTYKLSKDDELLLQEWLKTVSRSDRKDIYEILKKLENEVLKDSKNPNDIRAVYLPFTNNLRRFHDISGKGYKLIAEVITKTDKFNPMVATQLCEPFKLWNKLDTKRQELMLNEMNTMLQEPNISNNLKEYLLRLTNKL

[13] = Luminescence Cell-Based Dose Retest to Confirm Inhibitors of Cancer Stem Cells. [Related pubchem assays (depositor defined):AID2717, AID2721]; type: functional; details: Homo sapiens
[14] = molecular target: T6, Microphthalmia-associated transcription factor (Homo sapiens, UniProt O75030); assay: reducers of TRPM1 reporter luminescence, concentration series – cell-based, SK-MEL-5, cherry-picked, set 3, MITF inhibitor project, dose response (AID 493073); type: functional;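 also: SK-MEL-5 melanoma cells with luciferase driven by the MITF target TRPM1 promoter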
T6 sequence (O75030 whole entry): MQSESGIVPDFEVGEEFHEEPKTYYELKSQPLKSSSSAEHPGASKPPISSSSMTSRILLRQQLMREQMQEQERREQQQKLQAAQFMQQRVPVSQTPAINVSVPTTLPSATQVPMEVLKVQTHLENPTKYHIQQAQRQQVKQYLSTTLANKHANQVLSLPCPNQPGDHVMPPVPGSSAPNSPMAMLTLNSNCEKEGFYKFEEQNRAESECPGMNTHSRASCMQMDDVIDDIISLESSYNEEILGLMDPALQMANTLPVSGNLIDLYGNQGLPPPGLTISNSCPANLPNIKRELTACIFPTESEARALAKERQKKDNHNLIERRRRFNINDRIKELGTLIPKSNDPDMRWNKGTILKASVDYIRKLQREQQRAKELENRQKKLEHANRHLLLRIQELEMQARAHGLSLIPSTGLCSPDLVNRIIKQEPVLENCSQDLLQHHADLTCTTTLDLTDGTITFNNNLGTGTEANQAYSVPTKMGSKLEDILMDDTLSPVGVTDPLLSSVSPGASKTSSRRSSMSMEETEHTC

Sequence of Cytochrome P450 3A4 (P08684 whole entry): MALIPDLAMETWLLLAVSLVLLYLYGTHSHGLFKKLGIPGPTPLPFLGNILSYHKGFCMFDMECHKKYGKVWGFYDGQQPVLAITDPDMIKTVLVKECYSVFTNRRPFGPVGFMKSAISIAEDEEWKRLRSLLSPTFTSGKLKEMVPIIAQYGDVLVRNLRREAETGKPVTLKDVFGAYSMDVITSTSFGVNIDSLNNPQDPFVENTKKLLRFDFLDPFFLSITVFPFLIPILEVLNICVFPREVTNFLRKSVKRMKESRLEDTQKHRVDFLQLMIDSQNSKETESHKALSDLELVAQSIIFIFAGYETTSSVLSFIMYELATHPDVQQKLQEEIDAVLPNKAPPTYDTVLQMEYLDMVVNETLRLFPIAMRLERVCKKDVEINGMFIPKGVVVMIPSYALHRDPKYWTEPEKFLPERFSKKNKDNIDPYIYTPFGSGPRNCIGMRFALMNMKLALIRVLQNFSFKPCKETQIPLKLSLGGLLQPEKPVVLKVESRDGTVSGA

Compound: CNNC
- AC50 [1]: 31.6 µM (inconclusive)

Compound: Oc1c2nc3cccc(Cl)c3c-2ncn1CCN1CCCCC1
- IC50 [2]: > 50 µM (inactive)

Compound: Cn1c(-c2ccccc2)cnc1SCC(N)=O
- IC50 [2]: > 50 µM (inactive)

Compound: C=C(C)C(O)/C=C/c1ccccc1OC (stereo not given)
- AC50 [1]: 2.51 µM (inconclusive)

Compound: COc1ccccc1NC(=O)CSc1nnnn1C
- IC50 [2]: > 50 µM (inactive)

Compound: NCc1cc(-c2cccnc2)n[nH]1
- IC50 [3]: > 100 µM (inactive)
- IC50 [4]: > 100 µM (not active)

Compound: O=C(Nc1ccccc1N1CCCCC1)c1ccc(N2C(=O)c3ccccc3C2=O)cc1
- IC50 [5]: 1.99 µM (active)

Compound: O=C(CCl)N(C/C=C/c1ccccc1)c1ccc2c(c1)OCCO2
- EC50 [6]: 1.67 µM (active)
- IC50 [7]: 0.605 µM (active)
- EC50 [8]: 0.356 µM (active)

Compound: COC(=O)c1ccc(C23CC4(C2)[C@H](CN(C)[C@@H]4c2ccccc2)C3c2ccc(C(F)(F)F)cc2)cc1 (stereo not given in full)
- AC50 [1]: 15.8 µM (inconclusive)

Compound: COc1ccc(OC)c(NS(=O)(=O)c2ccc(SC)cc2)c1
- EC50 [9]: 6.98 µM (active)
- EC50 [10]: > 120 µM (not active)
- IC50 [7]: 3.35 µM (active)
- EC50 [11]: 44.8 µM (active)

Compound: NS(=O)(=O)c1ccc(CCNC(=O)COC(=O)CCSc2ccc(Cl)cc2)cc1
- IC50 [12]: 46.8 µM (active)

Compound: CCCN1[C@H](C(=O)OC)C[C@@H]2CC[C@@H](O)C[C@@H]21
- AC50 [1]: 15.8 µM (inconclusive)

Compound: CCOC(=O)C1=C(Nc2ccc(OC)cc2)S/C(=C\c2ccc(OCC(=O)O)c(OC)c2)C1=O
- IC50 [12]: 87.3 µM (active)

Compound: COC(=O)[C@@H]1C[C@@H]2CC[C@@H](O)C[C@@H]2N1Cc1ccc(N2CCOCC2)cc1
- AC50 [1]: 3.98 µM (inconclusive)

Compound: CCCCc1cc(=O)oc2cc(C)cc(OCc3nn[nH]n3)c12
- IC50 [12]: 63.6 µM (active)

Compound: O=S(=O)(Nc1ccc2ccccc2c1)c1cc(Cl)ccc1Cl
- IC50 [3]: > 100 µM (inactive) and > 10 µM (inactive)
- IC50 [4]: > 100 µM (not active)

Compound: CC(C)(C)C(=O)N1N=C(Nc2ccccc2)SC1(C)C
- IC50 [2]: > 50 µM (inactive)

Compound: CN(CC(O)CON=C1c2ccccc2-c2ccccc21)S(=O)(=O)c1ccc(Br)cc1 (stereo not given)
- AC50 [13]: 4.11 µM (active)
- IC50 [5]: 2.14 µM (active)

Compound: CC(C)CN=C(NS(=O)(=O)c1ccccc1)C(Cl)(Cl)Cl
- AC50 [13]: 2.15 µM (active)
- AC50 [14]: 11.1 µM (active)
- EC50 [6]: 7.41 µM (active)
- IC50 [5]: 2.02 µM (active)
